Measured values: patent US11830582B2, “Methods of designing novel antibody mimetics for use in detecting antigens and as therapeutic agents” (UNIVERSITY OF MIAMI, priority 2018, dated 2023)

Legend:
Format in all cases: binding
intact ZIKV particles [1] = assay: Direct ELISA vs intact ZIKV particles; details: for LOD: LOD=SB+3×SDB, interpolated from calibration curve; for FPLR maximum / FPLR minimum: delta absorbance 450 nm; for Long-term stability: dose-response performance of the assay; for FPLR C50 / FPLR slope: four-parameter logistic fit; for FPLR Dynamic Range: optimized peptide concentration of Table 5 (0.5-20 μM; 4G2 1 μg/ml); for dynamic range of dose-response curve (orders of magnitude): in words
Experimental: Before biotin functionalization, peptides stock solution was reduced using trialkylphosphine (TCEP) from ThermoFisher Scientific (www.thermofisher.com) and after 1 h the gel was removed using TCEP gel spin separation columns (ThermoFisher Scientific). Then, 2-fold molar excess of EZ-Link™ Maleimide-PEG2-Biotin (ThermoFisher Scientific) was added to purified peptide solution and incubated for 1 h. […] Therefore, no further separation was carried out.
(§1) To optimize all parameters of the direct ELISA protocol, Pierce 96-Well Polystyrene Plates, (ThermoFisher Scientific) were coated overnight at 4° C. with different concentrations of intact virus particles (ZIKV or DENV). The intact virus particles were diluted using 100 mM NaHCO3, pH 9.6, and aliquots of 100 μL were dispensed into each well of the plate using a multichannel pipette. This buffer pH assured a strong hydrophobic binding interaction between polystyrene and virus particles.
(§2) Intact particles both ZIKV and DENV were provided by Dr. Watkins group (University of Miami, Dep. of Pathology). The samples were controlled and counted by focus forming assay and RT-PCR, the details were reported in a previous work (Magnani et al., 2017). The Intact particles of ZIKV were inactivated using gamma irradiation. Assay biohazardous steps were carried out according to standard safety procedures.
(§3) After coating the plates overnight, the intact virus particles were removed by washing five times with the washing buffer (PBST) 10 mM PBS pH 7.4, 0.1% Tween-20, using an automated plate washer (MultiWash+, Molecular Devices, Sunnyvale, Calif.). Then, the plates were blocked with 200 μL of blocking buffers while shaking at 300 rpm at room temperature. The blocking buffers used were: Pierce™ Protein-Free (PBS) Blocking Buffer (PF), Blocker™ BLOTTO in TBS, SuperBlock™ Blocking Buffer, Blocker™ BSA (1×) in PBS. All blocking buffer were from ThermoFisher Scientific.
(§4) After 2 h the blocking buffers were removed using the same washing procedure mentioned above. 100 μL-aliquots of several dilutions of peptides biotinylated in 10 mM PBS pH 7.4 were placed in each well and incubated for 2 h while shaking at 300 rpm at room temperature. After the incubation, the unreacted peptides were removed by using the plate washer with the same settings. Then, 100 μL-aliquots of streptavidin-HRP (ThermoFisher Scientific) at a concentration of 20 ng/mL were added into each well and incubated for 30 min at room temperature without shaking. After the incubation, excess streptavidin-HRP was removed and the wells were washed with the plate washer five times using the washing buffer. Finally, 100 μL-aliquots of the Ultra TMB-ELISA Substrate Solution (ThermoFisher Scientific) were added and after 10 min the reaction was stopped by adding 100 μL aliquots of the TMB stop solution (SeraCare). The emission (450 nm) was read using a microplate reader (Clariostar Optima; BMG Labtech, Ortenberg, Germany).
The corresponding blank signals in triplicates were obtained by using all reagents without peptides. The blank signal was then subtracted to the average absorbance values for triplicate wells of each test.
The eight clamp peptides and the four mono-arm peptides selected, were tested vs intact ZIKV particles by using a direct ELISA. The peptides were biotinylated by using the maleimide-PEG2-biotin reagent that reacts with the sulfhydryl group of the cysteine efficiently and specifically by forming a stable thioether bond. The antibody 4G2 hybridoma mouse IgG2a was used as the reference and employed in combination with an anti-mouse IgG conjugated to HRP.
All analytical parameters involved in the development of ELISA were optimized by using 96-well plates coated with triplicate 10-fold serial dilutions of intact ZIKV particles.
Thus, the peptide concentrations reported in Table 5 were used to estimate the dynamic range and the LOD of the assay by using 10-fold serial dilutions of intact ZIKV particles from 10^^1 to 10^^8 copies/mL. […]

[2] = tested on: intact DENV particles (DENV-1, -2 and -3); assay: Cross-reactivity direct ELISA vs DENV serotypes
Experimental: as §1, §2, §3, §4
The cross-reactivity among Flaviviruses is a key parameter to be tested for this assay. […]

intact ZIKV particles [3] = assay: Direct ELISA matrix effect in urine and serum; details: urine 1:1, serum 1:10 diluted; 10^5 and 10^6 copies/mL ZIKV
Experimental: Usually, the presence of ZIKV in affected bodies is detected in biological fluids. Therefore, the analytical sensitivity of the selected peptides was tested in two biological matrices, namely, urine and serum. The matrix effect was investigated to understand how real biological fluids could modify the binding efficiency of the peptides.
FIG. 4 depicts the ELISA data using solutions of peptides with or without the urine and serum obtained coating clear 96-well plates with 10^^5 and 10^^6 copies/mL of intact ZIKV particles. Urine and serum were 1:1 and 1:10 diluted, respectively, with a concentrated peptide PBS solution (10 mM PBS, pH 7.4) to obtain a peptide final concentration of 0.5 μM for C3 and C6, 5 μM for C7 and 20 μM for mono-arm peptides (P2 and X1).

[4] = all DENV serotypes, 10^5 copies/mL coating

Substance: C2: clamp peptide WPHTQ (16) - bridge GPGCCGPG (32) - LRGHA (25) (WPHTQGPGCCGPGLRGHA; C1 Binds to Active Site 2; Bridge peptide; C2 Binds to Active Site 1)
- LOD (intact ZIKV particles [1]): 4.5 log[ZIKV], copies/mL
- FPLR maximum (intact ZIKV particles [1]): 0.55 ΔA
- FPLR minimum (intact ZIKV particles [1]): 0.05 ΔA
- Long-term stability (intact ZIKV particles [1]): >1 Month
- FPLR C50 (intact ZIKV particles [1]): 6.2 log[ZIKV], copies/mL
- FPLR slope (intact ZIKV particles [1]): 25.4
- FPLR Dynamic Range (intact ZIKV particles [1]): 5-7 log[ZIKV], copies/mL

Substance: C-LRGHA (CLRGHA; P2) [mono-arm pentapeptide with N-terminal cysteine]
- LOD (intact ZIKV particles [1]): 4.5 log[ZIKV], copies/mL
- FPLR maximum (intact ZIKV particles [1]): 0.94 ΔA
- FPLR minimum (intact ZIKV particles [1]): 0.04 ΔA
- Long-term stability (intact ZIKV particles [1]): >1 Month
- FPLR C50 (intact ZIKV particles [1]): 6.2 log[ZIKV], copies/mL
- FPLR slope (intact ZIKV particles [1]): 19.9
- FPLR Dynamic Range (intact ZIKV particles [1]): 5-7 log[ZIKV], copies/mL

Substance: C-SWPGQ (CSWPGQ; P1) [mono-arm pentapeptide with N-terminal cysteine]
- LOD (intact ZIKV particles [1]): 6.8 log[ZIKV], copies/mL
- Long-term stability (intact ZIKV particles [1]): >1 Month
- dynamic range of dose-response curve (orders of magnitude) (intact ZIKV particles [1]): one order of magnitude
- FPLR Dynamic Range (intact ZIKV particles [1]): 7-8 log[ZIKV], copies/mL

Substance: C6: clamp peptide AGRRP (20) - bridge GPGCCGPG (32) - LRGHA (25) (AGRRPGPGCCGPGLRGHA; C5 Binds to Active Site 2; Bridge peptide; C2 Binds to Active Site 1)
- LOD (intact ZIKV particles [1]): 3.5 log[ZIKV], copies/mL
- FPLR maximum (intact ZIKV particles [1]): 0.53 ΔA
- FPLR minimum (intact ZIKV particles [1]): 0.05 ΔA
- Long-term stability (intact ZIKV particles [1]): >1 Month
- FPLR C50 (intact ZIKV particles [1]): 5.2 log[ZIKV], copies/mL
- FPLR slope (intact ZIKV particles [1]): 10.1
- dynamic range of dose-response curve (orders of magnitude) (intact ZIKV particles [1]): three-order of magnitude
- FPLR Dynamic Range (intact ZIKV particles [1]): 4-7 log[ZIKV], copies/mL
- signal decrease DENV vs ZIKV ([2]; DENV-2, 10^5 copies/mL coating): 45%
- signal decrease DENV vs ZIKV ([2]; DENV-3, 10^5 copies/mL coating): 55%
- ELISA performance in urine and serum (intact ZIKV particles [3]): strong decrease in the signal

Substance: C7: clamp peptide MDSPIK (22) - bridge GPGCCGPG (32) - KRNATP (26) (MDSPIKGPGCCGPGKRNATP; C7 Binds to Active Site 2; Bridge peptide; C3 Binds to Active Site 1)
- LOD (intact ZIKV particles [1]): 3.7 log[ZIKV], copies/mL
- FPLR maximum (intact ZIKV particles [1]): 0.95 ΔA
- FPLR minimum (intact ZIKV particles [1]): 0.01 ΔA
- Long-term stability (intact ZIKV particles [1]): >1 Month
- FPLR C50 (intact ZIKV particles [1]): 5.8 log[ZIKV], copies/mL
- FPLR slope (intact ZIKV particles [1]): 5.3
- dynamic range of dose-response curve (orders of magnitude) (intact ZIKV particles [1]): three-order of magnitude
- FPLR Dynamic Range (intact ZIKV particles [1]): 4-7 log[ZIKV], copies/mL
- signal decrease DENV vs ZIKV [2, 4]: around 70%
- ELISA performance in urine and serum (intact ZIKV particles [3]): best performance among the three clamp peptides

Substance: C3: clamp peptide WPWIGT (18) - bridge GPGCCGPG (32) - KRNATP (26) (WPWIGTGPGCCGPGKRNATP; C3 Binds to Active Site 2; Bridge peptide; C3 Binds to Active Site 1)
- LOD (intact ZIKV particles [1]): 3.5 log[ZIKV], copies/mL
- FPLR maximum (intact ZIKV particles [1]): 0.67 ΔA
- FPLR minimum (intact ZIKV particles [1]): 0.05 ΔA
- Long-term stability (intact ZIKV particles [1]): >1 Month
- FPLR C50 (intact ZIKV particles [1]): 5.3 log[ZIKV], copies/mL
- FPLR slope (intact ZIKV particles [1]): 8.7
- dynamic range of dose-response curve (orders of magnitude) (intact ZIKV particles [1]): three-order of magnitude
- FPLR Dynamic Range (intact ZIKV particles [1]): 4-7 log[ZIKV], copies/mL
- signal decrease DENV vs ZIKV [2, 4]: around 70%
- ELISA performance in urine and serum (intact ZIKV particles [3]): better performance in urine than serum

Substance: C8: clamp peptide MDSPIK (22) - bridge GPGCCGPG (32) - KTDAYS (27) (MDSPIKGPGCCGPGKTDAYS; C7 Binds to Active Site 2; Bridge peptide; C4 Binds to Active Site 1)
- LOD (intact ZIKV particles [1]): 4.7 log[ZIKV], copies/mL
- FPLR maximum (intact ZIKV particles [1]): 0.82 ΔA
- FPLR minimum (intact ZIKV particles [1]): 0.03 ΔA
- Long-term stability (intact ZIKV particles [1]): >1 Month
- FPLR C50 (intact ZIKV particles [1]): 6.2 log[ZIKV], copies/mL
- FPLR slope (intact ZIKV particles [1]): 33.9
- FPLR Dynamic Range (intact ZIKV particles [1]): 5-7 log[ZIKV], copies/mL

Substance: C-KTDAYS (CKTDAYS; X2) [mono-arm hexapeptide with N-terminal cysteine]
- LOD (intact ZIKV particles [1]): 5.8 log[ZIKV], copies/mL
- FPLR maximum (intact ZIKV particles [1]): 0.91 ΔA
- FPLR minimum (intact ZIKV particles [1]): 0.01 ΔA
- Long-term stability (intact ZIKV particles [1]): >1 Month
- FPLR C50 (intact ZIKV particles [1]): 6.1 log[ZIKV], copies/mL
- FPLR slope (intact ZIKV particles [1]): 27.7
- FPLR Dynamic Range (intact ZIKV particles [1]): 6-8 log[ZIKV], copies/mL

Substance: C4: clamp peptide WPWIGT (18) - bridge GPGCCGPG (32) - KTDAYS (27) (WPWIGTGPGCCGPGKTDAYS; C3 Binds to Active Site 2; Bridge peptide; C4 Binds to Active Site 1)
- LOD (intact ZIKV particles [1]): 5.7 log[ZIKV], copies/mL
- FPLR maximum (intact ZIKV particles [1]): 0.40 ΔA
- FPLR minimum (intact ZIKV particles [1]): 0.02 ΔA
- Long-term stability (intact ZIKV particles [1]): >1 Month
- FPLR C50 (intact ZIKV particles [1]): 6.3 log[ZIKV], copies/mL
- FPLR slope (intact ZIKV particles [1]): 32.8
- FPLR Dynamic Range (intact ZIKV particles [1]): 6-7 log[ZIKV], copies/mL

Substance: C5: clamp peptide AGRRP (20) - bridge GPGCCGPG (32) - SWPGQ (24) (AGRRPGPGCCGPGSWPGQ; C5 Binds to Active Site 2; Bridge peptide; C1 Binds to Active Site 1)
- LOD (intact ZIKV particles [1]): 5.8 log[ZIKV], copies/mL
- FPLR maximum (intact ZIKV particles [1]): 0.17 ΔA
- FPLR minimum (intact ZIKV particles [1]): 0.01 ΔA
- Long-term stability (intact ZIKV particles [1]): >1 Month
- FPLR C50 (intact ZIKV particles [1]): 6.4 log[ZIKV], copies/mL
- FPLR slope (intact ZIKV particles [1]): 25.6
- FPLR Dynamic Range (intact ZIKV particles [1]): 6-7 log[ZIKV], copies/mL

Substance: C-KRNATP (CKRNATP; X1) [mono-arm hexapeptide with N-terminal cysteine]
- LOD (intact ZIKV particles [1]): 4.8 log[ZIKV], copies/mL
- FPLR maximum (intact ZIKV particles [1]): 0.98 ΔA
- FPLR minimum (intact ZIKV particles [1]): 0.03 ΔA
- Long-term stability (intact ZIKV particles [1]): >1 Month
- FPLR C50 (intact ZIKV particles [1]): 6.1 log[ZIKV], copies/mL
- FPLR slope (intact ZIKV particles [1]): 20.8
- FPLR Dynamic Range (intact ZIKV particles [1]): 5-7 log[ZIKV], copies/mL
